Assay results: patent publication EP2140864A2 (H. Lundbeck A/S, priority 2001, dated 2002)
Where two headings read alike, the source gives them in different places.

What was measured:
human 5HT7 = biological target: T1, human 5HT7 (Homo sapiens, UniProt P34969); experiment: Radioligand binding, 5HT7 receptor ([3H]-serotonin)
T1 construct: expressed in transfected cells
Method: (§1) Human 5HT1B, 5HT1D, 5HT1E, 5HT1F, and 5HT7 Receptors: The cell lysates of LM(tk-) clonal cell line stably transfected with the genes encoding each of these 5HT receptor-subtypes were prepared as described above. Cell membranes were suspended in 50mM Tris-HCl buffer (pH 7.4 at 37°C) containing 10 mM MgCl2, 0.2 mM EDTA, 10 µM pargyline, and 0.1% ascorbate. […] Nonspecific binding was determined in the presence of 10 µM serotonin. The bound radioligand was separated by filtration through GF/B filters using a cell harvester.
(§2) Binding data were analyzed using nonlinear regression and statistical techniques available in the GraphPAD Prism package (San Diego, CA). Enzymatic assay data were derived from a standard curve of reference compound data.

human 5HT1E = biological target: T2, human 5HT1E (Homo sapiens, UniProt P28566); experiment: Radioligand binding, 5HT1E receptor ([3H]-serotonin)
T2 construct: expressed in transfected cells
T2 sequence (P28566 whole entry): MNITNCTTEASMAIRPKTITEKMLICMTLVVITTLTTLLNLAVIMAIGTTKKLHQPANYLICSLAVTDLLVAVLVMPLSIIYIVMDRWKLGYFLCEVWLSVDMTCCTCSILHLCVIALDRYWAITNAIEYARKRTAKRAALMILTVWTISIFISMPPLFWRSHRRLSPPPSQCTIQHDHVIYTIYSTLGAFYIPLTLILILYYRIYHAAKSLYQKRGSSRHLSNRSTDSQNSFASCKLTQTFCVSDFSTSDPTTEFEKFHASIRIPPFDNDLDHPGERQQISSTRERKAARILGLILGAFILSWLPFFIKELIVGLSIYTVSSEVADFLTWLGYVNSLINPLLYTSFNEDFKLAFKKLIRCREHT
Method: as §1, §2

human 5HT1D = biological target: T3, human 5HT1D (Homo sapiens, UniProt P28221); experiment: Radioligand binding, 5HT1D receptor ([3H]-serotonin)
T3 construct: expressed in transfected cells
T3 sequence (P28221 whole entry): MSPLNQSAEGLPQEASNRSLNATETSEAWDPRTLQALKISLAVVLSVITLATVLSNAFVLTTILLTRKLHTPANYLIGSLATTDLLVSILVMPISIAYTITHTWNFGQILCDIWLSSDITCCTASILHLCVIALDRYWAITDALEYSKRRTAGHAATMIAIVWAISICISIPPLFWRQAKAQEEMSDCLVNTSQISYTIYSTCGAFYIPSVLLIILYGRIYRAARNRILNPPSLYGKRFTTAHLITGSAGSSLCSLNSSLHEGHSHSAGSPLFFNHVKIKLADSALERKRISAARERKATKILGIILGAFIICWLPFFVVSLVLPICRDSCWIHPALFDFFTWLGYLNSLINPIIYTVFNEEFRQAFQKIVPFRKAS
Method: as §1, §2

dopamine D5 receptor = biological target: T4, dopamine D5 receptor (Homo sapiens, UniProt P21918); experiment: Radioligand binding, dopamine D5 receptor
T4 construct: expressed in transfected cells
T4 sequence (P21918 whole entry): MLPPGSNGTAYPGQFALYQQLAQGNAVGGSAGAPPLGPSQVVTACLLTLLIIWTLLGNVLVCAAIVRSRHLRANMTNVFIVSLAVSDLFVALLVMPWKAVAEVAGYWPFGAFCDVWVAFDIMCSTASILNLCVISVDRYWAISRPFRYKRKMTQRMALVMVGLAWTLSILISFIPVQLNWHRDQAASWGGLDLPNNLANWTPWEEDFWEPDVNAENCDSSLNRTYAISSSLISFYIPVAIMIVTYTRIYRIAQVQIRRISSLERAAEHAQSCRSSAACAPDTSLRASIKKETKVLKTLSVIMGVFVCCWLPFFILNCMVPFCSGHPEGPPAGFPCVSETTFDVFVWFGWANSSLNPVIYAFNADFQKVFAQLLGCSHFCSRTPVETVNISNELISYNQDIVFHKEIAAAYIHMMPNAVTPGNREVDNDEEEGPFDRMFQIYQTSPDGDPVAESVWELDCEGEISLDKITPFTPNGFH
Source text: (§3) Other receptors: Cell membranes expressing human dopamine D1, D2, D4 and rat D3 receptors were purchased through BioSignal, Inc. (Montreal, Canada). Binding assays using the histamine H1 receptor; dopamine receptors; and α1A, α1E, and α2 adrenergic receptors may be carried out according to the procedures described in U.S. Patent No. 5,780,485, the disclosure of which is hereby incorporated by reference in its entirety into this application. Binding assays using the dopamine D5 receptor may be carried out according to the procedures described in U.S. Patent No. 5,882,855, the disclosure of which is hereby incorporated by reference in its entirety into this application. Binding assays for the human α1D adrenergic receptor may be carried out according to the procedures described in U.S. Patent No. 6,156,518, the disclosure of which is hereby incorporated by reference in its entirety into this application.
as §2

human 5HT6 = biological target: T5, human 5HT6 (Homo sapiens, UniProt P50406); experiment: Radioligand binding, 5-HT6 receptor
T5 construct: expressed in transfected cells
T5 sequence (P50406 whole entry): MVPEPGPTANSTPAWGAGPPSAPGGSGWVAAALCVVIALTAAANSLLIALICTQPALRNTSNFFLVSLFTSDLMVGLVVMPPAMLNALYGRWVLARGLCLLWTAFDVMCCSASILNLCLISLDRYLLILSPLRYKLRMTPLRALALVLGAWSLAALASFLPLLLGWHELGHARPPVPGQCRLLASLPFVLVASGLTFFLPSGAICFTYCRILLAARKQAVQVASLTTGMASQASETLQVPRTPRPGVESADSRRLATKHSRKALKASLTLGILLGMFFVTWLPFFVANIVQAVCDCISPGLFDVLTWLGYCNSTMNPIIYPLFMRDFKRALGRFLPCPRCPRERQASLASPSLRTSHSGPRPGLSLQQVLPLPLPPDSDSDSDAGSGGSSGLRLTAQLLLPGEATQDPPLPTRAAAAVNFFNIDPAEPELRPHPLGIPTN
Method: (§4) Other 5-HT Receptors: Other serotonin receptor binding assays were performed according to published methods: rat 5HT2C receptor (Julius et al., 1988); and 5-HT6 (Monsma, et al., 1993). The binding assays using the 5-HT4 receptor were performed according to the procedures described in U.S. Patent No. 5,766,879, the disclosure of which is hereby incorporated by reference in its entirety into this application.
as §2

human α1B adrenoceptor = biological target: T6, human α1B adrenoceptor (Homo sapiens, UniProt P35368); experiment: Radioligand binding, α1B adrenergic receptor
T6 construct: expressed in transfected cells
T6 sequence (P35368 1-520): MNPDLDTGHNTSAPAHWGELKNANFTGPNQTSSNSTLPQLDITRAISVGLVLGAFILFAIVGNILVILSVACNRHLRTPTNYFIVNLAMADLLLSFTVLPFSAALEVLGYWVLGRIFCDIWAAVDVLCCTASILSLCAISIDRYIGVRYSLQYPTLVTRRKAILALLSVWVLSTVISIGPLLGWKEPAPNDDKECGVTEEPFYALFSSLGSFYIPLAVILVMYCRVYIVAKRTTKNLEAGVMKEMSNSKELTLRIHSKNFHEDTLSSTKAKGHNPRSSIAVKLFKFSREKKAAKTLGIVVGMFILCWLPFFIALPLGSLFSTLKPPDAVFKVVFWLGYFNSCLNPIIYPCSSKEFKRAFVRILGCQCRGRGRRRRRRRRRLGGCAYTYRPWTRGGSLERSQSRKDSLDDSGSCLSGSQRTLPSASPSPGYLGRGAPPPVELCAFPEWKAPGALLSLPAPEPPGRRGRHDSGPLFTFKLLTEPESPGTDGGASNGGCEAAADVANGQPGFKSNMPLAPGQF

human dopamine D1 = biological target: T7, human dopamine D1 (Homo sapiens, UniProt P21728); experiment: Radioligand binding, dopamine D1 receptor
T7 construct: purchased BioSignal, Inc. (Montreal, Canada); host or cells: membranes of cells expressing the receptor
T7 sequence (P21728 whole entry): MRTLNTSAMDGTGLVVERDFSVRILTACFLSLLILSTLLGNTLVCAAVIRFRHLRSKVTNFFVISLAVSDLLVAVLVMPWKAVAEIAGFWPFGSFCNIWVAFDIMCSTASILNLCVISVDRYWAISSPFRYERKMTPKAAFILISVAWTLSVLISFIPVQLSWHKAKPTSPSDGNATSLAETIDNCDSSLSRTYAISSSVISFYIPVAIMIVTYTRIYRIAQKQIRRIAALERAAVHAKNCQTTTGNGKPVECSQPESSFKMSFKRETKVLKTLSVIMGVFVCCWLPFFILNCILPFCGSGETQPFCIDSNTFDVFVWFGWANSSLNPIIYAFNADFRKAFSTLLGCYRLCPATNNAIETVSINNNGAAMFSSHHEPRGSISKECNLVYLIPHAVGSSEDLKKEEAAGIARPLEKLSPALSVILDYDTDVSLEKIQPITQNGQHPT
Source text: as §3, §2

5HT transporter = 5HT transporter (Rattus norvegicus, UniProt P31652); experiment: Binding at native 5HT transporter
5HT transporter, sequence (P31652 whole entry): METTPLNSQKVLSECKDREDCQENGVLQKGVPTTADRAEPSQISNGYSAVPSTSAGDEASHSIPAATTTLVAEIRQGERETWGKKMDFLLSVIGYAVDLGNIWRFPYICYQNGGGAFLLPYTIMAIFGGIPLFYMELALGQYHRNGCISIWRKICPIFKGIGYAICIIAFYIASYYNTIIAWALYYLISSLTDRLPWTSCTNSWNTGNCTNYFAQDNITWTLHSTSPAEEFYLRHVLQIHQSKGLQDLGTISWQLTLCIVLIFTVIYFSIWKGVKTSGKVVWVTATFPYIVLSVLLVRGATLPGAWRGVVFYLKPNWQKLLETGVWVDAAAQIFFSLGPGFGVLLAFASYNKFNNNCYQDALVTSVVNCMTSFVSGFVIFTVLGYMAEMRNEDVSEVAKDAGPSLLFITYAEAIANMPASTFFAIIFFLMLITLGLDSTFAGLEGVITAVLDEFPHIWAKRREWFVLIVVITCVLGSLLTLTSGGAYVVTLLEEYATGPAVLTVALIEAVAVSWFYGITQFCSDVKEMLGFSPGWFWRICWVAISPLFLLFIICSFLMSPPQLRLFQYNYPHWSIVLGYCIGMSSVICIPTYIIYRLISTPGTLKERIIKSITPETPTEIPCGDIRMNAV
Method: (§5) The binding properties of the compounds of the present invention were evaluated at one or more cloned receptors or native, tissue-derived transporters, using protocols described below.
(§6) The methods to determine binding affinity at native transporters are described in the following publications: 5HT transporter and NE transporter (Owens et al., 1997), and DA transporter (Javitch et al, 1984).
as §2

DA transporter = DA transporter (Rattus norvegicus, UniProt P23977); experiment: Binding at native DA transporter
DA transporter, sequence (P23977 whole entry): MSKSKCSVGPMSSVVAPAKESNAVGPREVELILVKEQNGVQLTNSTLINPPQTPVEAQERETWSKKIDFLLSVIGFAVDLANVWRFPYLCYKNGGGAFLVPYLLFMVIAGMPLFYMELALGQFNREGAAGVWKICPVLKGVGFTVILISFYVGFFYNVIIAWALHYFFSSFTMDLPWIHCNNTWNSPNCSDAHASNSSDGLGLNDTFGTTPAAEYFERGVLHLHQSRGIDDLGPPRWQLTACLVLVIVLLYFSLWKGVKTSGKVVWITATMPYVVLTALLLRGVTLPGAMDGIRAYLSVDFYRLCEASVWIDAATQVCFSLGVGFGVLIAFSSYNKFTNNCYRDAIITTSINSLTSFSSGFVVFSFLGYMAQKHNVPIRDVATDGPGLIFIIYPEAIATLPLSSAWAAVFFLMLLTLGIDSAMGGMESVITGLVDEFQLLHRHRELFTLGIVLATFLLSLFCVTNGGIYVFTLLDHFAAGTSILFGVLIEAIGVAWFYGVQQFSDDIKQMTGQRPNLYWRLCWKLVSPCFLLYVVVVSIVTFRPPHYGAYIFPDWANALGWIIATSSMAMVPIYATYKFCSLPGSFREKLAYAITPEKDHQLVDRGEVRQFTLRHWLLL
Method: as §5, §6, §2

human 5HT4 receptor = biological target: T8, human 5HT4 receptor (Homo sapiens, UniProt Q13639); experiment: Radioligand binding, 5-HT4 receptor
T8 construct: expressed in transfected cells
T8 sequence (Q13639 whole entry): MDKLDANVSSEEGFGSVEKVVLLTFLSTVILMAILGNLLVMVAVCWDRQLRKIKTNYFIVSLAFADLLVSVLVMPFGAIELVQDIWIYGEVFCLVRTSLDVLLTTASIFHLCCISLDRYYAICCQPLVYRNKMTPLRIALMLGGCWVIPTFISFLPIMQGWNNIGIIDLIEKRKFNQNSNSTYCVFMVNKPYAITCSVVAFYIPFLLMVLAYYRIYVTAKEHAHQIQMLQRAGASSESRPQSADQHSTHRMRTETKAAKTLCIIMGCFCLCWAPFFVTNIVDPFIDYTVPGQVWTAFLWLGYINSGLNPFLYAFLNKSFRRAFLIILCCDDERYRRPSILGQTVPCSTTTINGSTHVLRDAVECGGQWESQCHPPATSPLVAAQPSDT
Method: as §4, §2

human α2B adrenoceptor = biological target: T9, human α2B adrenoceptor (Homo sapiens, UniProt P18089); experiment: Radioligand binding, α2B adrenergic receptor
T9 construct: expressed in transfected cells
T9 sequence (P18089 1-450): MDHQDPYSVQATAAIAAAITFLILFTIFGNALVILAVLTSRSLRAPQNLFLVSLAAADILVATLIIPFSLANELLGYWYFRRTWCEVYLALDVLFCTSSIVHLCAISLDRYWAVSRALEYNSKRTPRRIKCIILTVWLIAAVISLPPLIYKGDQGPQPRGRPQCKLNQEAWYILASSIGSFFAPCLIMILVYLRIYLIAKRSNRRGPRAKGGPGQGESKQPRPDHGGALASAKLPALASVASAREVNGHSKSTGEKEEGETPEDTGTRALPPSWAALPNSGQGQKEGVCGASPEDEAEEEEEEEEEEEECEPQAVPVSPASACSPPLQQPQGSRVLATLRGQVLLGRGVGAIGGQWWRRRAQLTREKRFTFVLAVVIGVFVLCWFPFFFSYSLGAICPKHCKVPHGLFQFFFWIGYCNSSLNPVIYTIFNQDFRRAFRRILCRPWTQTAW
Source text: as §3, §2

[1] = Table 8; Ki h5HT7 divided by Ki hGAL3
[2] = Table 8; Ki h5HT1E divided by Ki hGAL3
[3] = Table 8; Ki h5HT1D divided by Ki hGAL3
[4] = Table 10; Ki hD5 divided by Ki hGAL3
[5] = Table 8; Ki h5HT6 divided by Ki hGAL3
[6] = Table 10; Ki hα1B divided by Ki hGAL3
[7] = Table 10; Ki hD1 divided by Ki hGAL3
[8] = Table 7; native transporter, head prints r (rat); read-out: r5HT Uptk Ki
[9] = Table 8; Ki r5HT Uptk divided by Ki hGAL3
[10] = Table 7; native transporter, head prints r (rat); read-out: rDA Uptk Ki
[11] = Table 8; Ki rDA Uptk divided by Ki hGAL3
[12] = Table 8; Ki h5HT4 divided by Ki hGAL3
[13] = Table 10; Ki hα2B divided by Ki hGAL3

T1 sequence (P34969 1-445 isoform P34969-2): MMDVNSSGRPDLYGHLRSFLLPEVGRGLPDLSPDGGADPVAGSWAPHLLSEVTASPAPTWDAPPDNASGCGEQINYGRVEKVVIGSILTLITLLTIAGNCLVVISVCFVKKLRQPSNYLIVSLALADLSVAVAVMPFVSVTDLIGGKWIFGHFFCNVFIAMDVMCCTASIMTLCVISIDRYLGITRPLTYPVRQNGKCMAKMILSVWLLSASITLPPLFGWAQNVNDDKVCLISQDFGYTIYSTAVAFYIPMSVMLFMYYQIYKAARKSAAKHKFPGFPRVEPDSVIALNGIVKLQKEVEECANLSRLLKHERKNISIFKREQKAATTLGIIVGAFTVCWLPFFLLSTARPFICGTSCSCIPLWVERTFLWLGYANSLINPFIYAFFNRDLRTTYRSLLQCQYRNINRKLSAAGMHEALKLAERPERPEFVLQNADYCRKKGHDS

Row | Compound | Ki (human 5HT7; Table 7; read-out: h5HT7 Ki) | selectivity ratio h5HT7 (human 5HT7; [1]) | Ki (human 5HT1E; Table 7; read-out: h5HT1E Ki) | selectivity ratio h5HT1E (human 5HT1E; [2]) | Ki (human 5HT1D; Table 7; read-out: h5HT1D Ki) | selectivity ratio h5HT1D (human 5HT1D; [3]) | Ki (dopamine D5 receptor; Table 9; read-out: hD5 Ki) | selectivity ratio hD5 (dopamine D5 receptor; [4]) | Ki (human 5HT6; Table 7; read-out: h5HT6 Ki) | selectivity ratio h5HT6 (human 5HT6; [5]) | Ki (human α1B adrenoceptor; Table 9; read-out: hα1B Ki) | selectivity ratio hα1B (human α1B adrenoceptor; [6]) | Ki (human dopamine D1; Table 9; read-out: hD1 Ki) | selectivity ratio hD1 (human dopamine D1; [7]) | Ki (5HT transporter; [8]) | selectivity ratio r5HT Uptk (5HT transporter; [9]) | Ki (DA transporter; [10]) | selectivity ratio rDA Uptk (DA transporter; [11]) | selectivity ratio h5HT4 (human 5HT4 receptor; [12]) | selectivity ratio hα2B (human α2B adrenoceptor; [13]) | other results
1 | Cc1ccc(Nc2cc(N3CCCCC3)nc(N3CCN(c4ncccc4C(F)(F)F)CC3)n2)cc1 [Example 34] | 4.44 µM | >100 | 28.3 µM | >100 | 2.98 µM | >100 | 0.111 µM | 5 | 38.9 µM | >100 | 15 µM | >100 | 0.29 µM | 13 | 37.5 µM | >100 | 3.9 µM | >100 | >100 | >100 | Ki (human 5HT4 receptor; Table 7; read-out: h5HT4 Ki): 20.8 µM; Ki (human α2B adrenoceptor; Table 9; read-out: hα2B Ki): 15.5 µM
2 | O=C1C(=Nc2ccc(Cl)cc2)c2ccccc2N1c1ccccc1 [Example 97, 3-[(4-CHLOROPHENYL)IMINO]-1-PHENYL-1,3-DIHYDRO-2H-INDOL-2-ONE] | 11.3 µM | >100 | 22.7 µM | >100 | 14.2 µM | >100 | 10.1 µM | >100 | 29.1 µM | >100 | 45.8 µM | >100 | 25.1 µM | >100 | 36.3 µM | >100 | 8.44 µM | >100 | >30 | >100 | Ki (human 5HT4 receptor; Table 7; read-out: h5HT4 Ki): 2.55 µM; Ki (human α2B adrenoceptor; Table 9; read-out: hα2B Ki): > 50 µM
3 | COC[C@@H]1[C@@H](c2ccccc2)OCCN1c1nc(Nc2ccc(C)cc2)cc(N2CCCCC2)n1 [Example 49] | – | >30 | – | >100 | – | >30 | – | 2 | – | – | – | >30 | – | 18 | – | >100 | – | 10 | >30 | >100 | Ki (human 5HT7; read-out: h5HT7 Ki; Table 7): 12.3 µM; Ki (human 5HT1E; read-out: h5HT1E Ki; Table 7): 23.9 µM; Ki (human 5HT1D; read-out: h5HT1D Ki; Table 7): 16.9 µM; Ki (dopamine D5 receptor; read-out: hD5 Ki; Table 9): 0.328 µM; Ki (human 5HT6; read-out: h5HT6 Ki; Table 7): 0.013 µM; Ki (human α1B adrenoceptor; read-out: hα1B Ki; Table 9): 18.9 µM; Ki (human dopamine D1; read-out: hD1 Ki; Table 9): 3.78 µM; Ki (5HT transporter; read-out: r5HT Uptk Ki; Table 7; native transporter, head prints r (rat)): 40.7 µM; Ki (DA transporter; read-out: rDA Uptk Ki; Table 7; native transporter, head prints r (rat)): 2.01 µM; Ki (human 5HT4 receptor; read-out: h5HT4 Ki; Table 7): 13.2 µM; Ki (human α2B adrenoceptor; read-out: hα2B Ki; Table 9): 25.4 µM
4 | Cc1ccc(Nc2cc(N3CCCCC3)nc(N(C)CCc3ccccc3)n2)cc1 [Example 22] | 2.67 µM | >30 | 13.2 µM | >100 | 1.85 µM | >30 | 0.063 µM | 2 | 2.26 µM | >30 | 1.58 µM | >30 | 0.128 µM | 5 | 8.48 µM | >100 | 7.48 µM | >100 | >30 | >100 | Ki (human 5HT4 receptor; Table 7; read-out: h5HT4 Ki): 2.46 µM; Ki (human α2B adrenoceptor; Table 9; read-out: hα2B Ki): 5.76 µM
